Source: article PMC8308585, “Design and Synthesis of Novel Thiazolo[5,4-d]pyrimidine Derivatives with High Affinity for Both the Adenosine A1 and A2A Receptors, and Efficacy in Animal Models of Depression” (Pharmaceuticals, 2021)

Tests used:
mice [1] = test: Tail suspension test; assay type: in vivo; conditions: mouse TST, single dose, mean ± SEM of 10 mice, vehicle 99.0 ± 6.8
Protocol: To execute the tests, mice were divided into groups, each of which consisted of 10 animals. The tests were performed after a single p.o. administration of compound 18 at different dosages (10 mg Kg^−1 and 30 mg Kg^−1). Amitriptyline (15 mg Kg^−1) was used as the reference drug. Compounds were acutely administrated 26 min before the beginning of the experiment. In the FST (Table 4), the duration of immobility was recorded during the last 4 min of the 6 min test.
A decrease in the duration of immobility is indicative of an antidepressant-like effect. […] Accordingly, a similar activity was shown in the tail suspension test (Table 5) where the immobility time was measured in the first 2 min, when animals react to the inescapable stress, and in the last 4 min of the test, when the behavioral despair is established. Immobility was defined as the absence of any limb or body movements, except those caused by respiration. A reduction in the duration of the immobility time is indicative of an antidepressant-like effect.
Male CD-1 albino mice (22–25 g; Envigo, Varese, Italy) were housed in CeSAL (Centro Stabulazione Animali da Laboratorio, University of Florence, Florence, Italy) and used at least one week after their arrival. Animals were housed in 26 cm × 41 cm cages (12 mice each) and fed with a standard laboratory diet and tap water ad libitum. They were kept at 23 ± 1 °C with a 12 h light/dark cycle, light at 7 a.m. […]
A piece of tape was adhered to the upper middle of the tail of each animal, creating a flap with the overlap of tape. […] The duration of the test was 6 min and the immobility time was measured in the first 2 min, when animals react to the inescapable stress, and in the last 4 min of the test, when the behavioral despair is established. […]
Behavioral tests were performed by visual observation by researchers blinded to the treatments. Results were expressed as means ± SEM, variance was analyzed by ANOVA. […] Data were analyzed using the “Origin 8.1” software.

hA2A AR = target: T1, hA2A AR (Homo sapiens, UniProt P29274); test: Inhibition of NECA-induced increase of cAMP in CHO cells expressing hA2A AR (GloSensor cAMP assay); assay type: cell-based; conditions: inhibition of NECA-stimulated adenylyl cyclase activity, mean ± standard error
T1 construct: expressed in transfected cells; host or cells: CHO cells
Protocol: Compound 18 was also tested to evaluate its antagonist behavior at the hA1 AR by assessing its ability to counteract NECA-induced decrease of cAMP accumulation.
The intrinsic activity of understudy compounds was evaluated through the GloSensor cAMP assay, as described previously. Briefly, cells stably expressing the hA1, hA2A, and hA2B ARs and the biosensor were incubated for 2 h at rt in equilibration medium containing 3% v/v GloSensor cAMP reagent stock solution, 10% FBS, and 87% CO2 independent medium. Afterward, cells were dispensed in the wells of a 384-well plate and the reference agonist NECA or the compounds, at different concentrations, were tested. The antagonist profile of compounds was evaluated by assessing their ability to counteract NECA-induced increase (A2A and A2B ARs) or decrease (A1 AR) of cAMP accumulation. Responses were expressed as percentage of the maximal relative luminescence units (RLU).
Binding data and concentration–response curves were fitted by a nonlinear regression with the Prism program (GraphPAD Prism 7 Software, San Diego, CA, USA). Each concentration was tested 3–5 times in duplicate and the Ki or IC50 (the concentration of antagonists that produces 50% inhibition of the agonist effect) values are given as the mean ± standard error (S.E.).

human A1 AR = target: T2, human A1 AR (Homo sapiens, UniProt P30542); test: Radioligand binding, displacement of [3H]-CCPA at hA1 AR in CHO cells; conditions: displacement of specific [3H]-CCPA binding, n = 3–6, mean ± SEM
T2 construct: expressed in transfected cells; host or cells: CHO cells
T2 sequence (P30542 1-326): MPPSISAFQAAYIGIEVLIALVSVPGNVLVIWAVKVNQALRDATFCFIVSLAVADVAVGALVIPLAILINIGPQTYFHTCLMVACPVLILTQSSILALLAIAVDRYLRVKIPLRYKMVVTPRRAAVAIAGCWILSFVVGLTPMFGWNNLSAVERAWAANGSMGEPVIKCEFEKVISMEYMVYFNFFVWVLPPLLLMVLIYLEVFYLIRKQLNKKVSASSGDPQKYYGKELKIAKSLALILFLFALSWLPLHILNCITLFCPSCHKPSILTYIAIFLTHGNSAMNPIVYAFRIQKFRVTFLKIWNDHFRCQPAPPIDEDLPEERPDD
Protocol: CHO cells, stably expressing hARs, were grown adherently and maintained in Dulbecco’s modified Eagle’s medium (DMEM) with nutrient mixture F12 supplemented with 10% fetal bovine serum (FBS), penicillin (100 µg/mL), streptomycin (100 µg/mL), sodium pyruvate (1 mM), and geneticin (0.1 mg/mL).
Briefly, cells were homogenized in cold lysis buffer (5 mM Tris HCl, 2 mM EDTA, pH 7.4), centrifuged at low speed spin for 10 min, and subsequently, the supernatant was spun at 37,000 rpm. Membrane pellet was resuspended in the specific buffer and stored at −80 °C.
The binding affinity of the novel compounds was evaluated using radioligand competition experiments in CHO cells stably transfected with hA1 AR, hA2A AR, and hA3 AR subtypes.

mice [2] = test: Sucrose preference test, LPS-induced anhedonia; assay type: in vivo, mouse; conditions: for Sucrose Preference (%), 6 h / Sucrose Preference (%), 24 h: LPS 1.25 mg kg^−1 i.p. mice; for Sucrose Preference (%), 6 h: 6 h after LPS, vehicle + LPS 42.3 ± 3.1; for Sucrose Preference (%), 24 h: 24 h after LPS, vehicle + LPS 38.0 ± 5.6
Protocol: Anhedonia, or the inability to experience pleasure, is a common symptom of depression. The mood regulatory role of 18 was studied against anhedonia evaluated in the sucrose preference test in animals treated with lipopolysaccharide (LPS), a model of neuroinflammation-induced depressive-like syndrome. Compound 18 (10 mg kg^−1 and 30 mg kg^−1) was daily p.o administered for five consecutive days. Twenty-four hours after the last 18 treatment, LPS 1.25 mg kg^−1 was intraperitoneally injected. Immediately after LPS injection, mice were placed in cages equipped with two bottles: a bottle of 2% sucrose solution and a bottle of water (unsweetened tap water). The consumption of the 2% sucrose solution was evaluated 6 h and 24 h after LPS injection. Amitriptyline (15 mg kg^−1) was used as the reference drug administered following the same protocol.
Male CD-1 albino mice (22–25 g; Envigo, Varese, Italy) were housed in CeSAL (Centro Stabulazione Animali da Laboratorio, University of Florence, Florence, Italy) and used at least one week after their arrival. Animals were housed in 26 cm × 41 cm cages (12 mice each) and fed with a standard laboratory diet and tap water ad libitum. They were kept at 23 ± 1 °C with a 12 h light/dark cycle, light at 7 a.m. Compound 18 was administered per o.s. whereas amitriptyline was by a s.c. route following the most widely used approach reported in the literature.
Lipopolysaccharide (LPS) from Escherichia coli was purchased from Sigma-Aldrich, (Milan, Italy) freshly dissolved in sterile saline, and injected intraperitoneally (i.p.) at the dose of 1.25 mg kg^−1 [49] after five consecutive days of treatment with compound 18, 1 h after the last administration of the compound. Behavioral tests were performed before 6 h and 24 h after LPS administration.
Mice were placed in cages equipped with a couple of bottles, one containing 2% sucrose solution, the second with water (unsweetened tap water). The consumption of the 2% sucrose solution was evaluated 6 h and 24 h after the beginning of the experiment. The preference index was calculated according to the following formula: preference index = volume consumed sucrose solution/(volume consumed sucrose solution + volume consumed water).
Behavioral tests were performed by visual observation by researchers blinded to the treatments. Results were expressed as means ± SEM, variance was analyzed by ANOVA. A Bonferroni’s significant difference procedure was used as post-hoc comparison. p values of less than 0.05 and 0.01 were considered significant. Data were analyzed using the “Origin 8.1” software.

[3] = 10 mg kg^−1 p.o. daily for 5 days
[4] = 30 mg kg^−1 p.o. daily for 5 days

T1 sequence (P29274 whole entry): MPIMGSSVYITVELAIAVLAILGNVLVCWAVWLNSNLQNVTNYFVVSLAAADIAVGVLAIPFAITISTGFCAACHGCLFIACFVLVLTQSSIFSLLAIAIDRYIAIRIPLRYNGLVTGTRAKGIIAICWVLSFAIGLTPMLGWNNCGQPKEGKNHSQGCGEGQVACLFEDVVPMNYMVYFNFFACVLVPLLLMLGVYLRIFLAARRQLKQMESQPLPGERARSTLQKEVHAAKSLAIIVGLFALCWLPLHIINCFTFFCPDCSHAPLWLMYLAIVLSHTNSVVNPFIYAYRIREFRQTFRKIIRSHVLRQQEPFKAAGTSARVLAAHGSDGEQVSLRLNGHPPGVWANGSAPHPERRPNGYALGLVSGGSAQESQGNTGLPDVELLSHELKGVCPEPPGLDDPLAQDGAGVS

In the case of `Nc1nc(-c2ccco2)nc2sc(Cc3ccccc3F)nc12` [compound 18, 2-(2-Fluorobenzyl)-5-(furan-2-yl)thiazolo[5,4-d]pyrimidin-7-amine], the “Immobility Time” value (mice [1]; 10 mg kg^−1 p.o.) is reported as 88.9 ± 10.16 s, the “Immobility Time” value (mice [1]; 30 mg kg^−1 p.o.) is reported as 56.5 ± 6.1 s and the IC50 (hA2A AR) is reported as 14 ± 3.4 nM. For the same compound, the Ki (human A1 AR) was 1.9 ± 0.08 nM, the “Sucrose Preference (%), 6 h” value (mice [2]; [3]) was 48.9 ± 6.7% and the “Sucrose Preference (%), 24 h” value (mice [2]; [3]) was 39.7 ± 3.7%. The “Sucrose Preference (%), 6 h” value (mice [2]; [4]) was 67.3 ± 1.6 %, the “Sucrose Preference (%), 24 h” value (mice [2]; [4]) was 64.9 ± 2.6 % and the “Anhedonia-like behavior induced by LPS, preference index (in words)” value (mice [2]; mouse, 30 mg kg^−1 p.o. daily for 5 days) was “able to revert the anhedonia-like behavior induced by LPS comparably to the effect of amitriptyline”.
